Measured values published in the CheMixHub viscosity set.
± gives the uncertainty stated by the source.

Assay: xn = mol fraction of the nth substance listed

CCC(C)=O + Cc1ccc(C)cc1
307.35 K, 101.33 kPa
Conditions | viscosity [mPa·s]
x1 = 0.1273 | 0.515 ± 0.0094
x1 = 0.311 | 0.48 ± 0.0091
x1 = 0.3949 | 0.457 ± 0.0089
x1 = 0.5326 | 0.434 ± 0.0087
x1 = 0.5913 | 0.419 ± 0.0086
x1 = 0.6949 | 0.401 ± 0.0084
x1 = 0.7871 | 0.388 ± 0.0083

O=S(=O)([O-])c1ccc(O)cc1.[Na+] + O
viscosity [mPa·s], 101 kPa
Conditions | x1 = 9e-05 | x1 = 0.00018 | x1 = 0.0009 | x1 = 0.0018 | x1 = 0.00448 | x1 = 0.00893 | x1 = 0.0133 | x1 = 0.0177
298.15 K | 0.899 ± 0.009 | 0.9 ± 0.009 | 0.915 ± 0.009 | 0.931 ± 0.009 | 0.988 ± 0.01 | 1.085 ± 0.011 | 1.196 ± 0.01 | 1.321 ± 0.011
318.15 K | 0.598 ± 0.006 | 0.599 ± 0.006 | 0.608 ± 0.006 | 0.62 ± 0.006 | 0.656 ± 0.006 | 0.715 ± 0.007 | 0.786 ± 0.007 | 0.86 ± 0.008

OCCNCCO + CN(C)C=O
viscosity [mPa·s], 101 kPa
Conditions | 298.15 K | 303.15 K | 308.15 K | 313.15 K | 318.15 K | 323.15 K
x2 = 0.7704 | 2.703 ± 0.19 | 2.509 ± 0.18 | 2.34 ± 0.16 | 2.172 ± 0.15 | 2.034 ± 0.14 | 1.879 ± 0.13
x2 = 0.8119 | 2.172 ± 0.15 | 2.009 ± 0.14 | 1.842 ± 0.13 | 1.682 ± 0.12 | 1.542 ± 0.11 | 1.427 ± 0.1
x2 = 0.8519 | 1.853 ± 0.13 | 1.686 ± 0.12 | 1.559 ± 0.11 | 1.429 ± 0.1 | 1.295 ± 0.091 | 1.204 ± 0.085
x2 = 0.8907 | 1.53 ± 0.11 | 1.423 ± 0.1 | 1.321 ± 0.093 | 1.206 ± 0.085 | 1.115 ± 0.079 | 1.03 ± 0.072
x2 = 0.9283 | 1.357 ± 0.096 | 1.238 ± 0.087 | 1.14 ± 0.08 | 1.043 ± 0.073 | 0.9653 ± 0.068 | 0.8984 ± 0.063
x2 = 0.9647 | 1.169 ± 0.082 | 1.097 ± 0.077 | 1.02 ± 0.072 | 0.9487 ± 0.067 | 0.8828 ± 0.062 | 0.8316 ± 0.059

COC(C)=O + Cc1ccccc1C
viscosity [mPa·s], 101 kPa
Conditions | 298.15 K | 308.15 K
x1 = 0.0434 | 0.731 ± 0.005 | 0.636 ± 0.005
x1 = 0.1489 | 0.668 ± 0.005 | 0.587 ± 0.005
x1 = 0.2499 | 0.616 ± 0.005 | 0.546 ± 0.005
x1 = 0.3517 | 0.57 ± 0.005 | 0.508 ± 0.004
x1 = 0.444 | 0.533 ± 0.005 | 0.478 ± 0.004
x1 = 0.4974 | 0.513 ± 0.004 | 0.462 ± 0.004
x1 = 0.5506 | 0.495 ± 0.004 | 0.447 ± 0.004
x1 = 0.6497 | 0.465 ± 0.004 | 0.422 ± 0.004
x1 = 0.7494 | 0.438 ± 0.004 | 0.399 ± 0.004
x1 = 0.851 | 0.414 ± 0.004 | 0.378 ± 0.004
x1 = 0.9458 | 0.394 ± 0.004 | 0.36 ± 0.004
